Data as given in US20030134842A1, “METHODS FOR THE TREATMENT OR PREVENTION OF INFLAMMATORY DISEASES CHARACTERIZED BY ABNORMAL CELL PROLIFERATION” (priority 1997, published 2003).
Read-outs that look alike come from different tables or passages of the source.

How the values were obtained:
[1] = test system: NIH 3T3 mouse fibroblast cells; experiment: Mitogenic assay (mitogen-induced cell proliferation); format: cell-based; settings: for IC50: mitogen-induced cell proliferation
[2] = test system: A549; experiment: SRB antiproliferative assay A549; format: cell-based; settings: Homo sapiens
Source text: (§1) The cells were passaged using Trypsin (Gibco).

[3] = test system: MMRU; experiment: SRB antiproliferative assay MMRU; format: cell-based; settings: Homo sapiens
Source text: as §1

[4] = test system: HT29; experiment: SRB antiproliferative assay HT29; format: cell-based; settings: Homo sapiens
Source text: as §1

[5] = molecular target: T1, Ca2+-activated potassium channel (Gardos channel) of erythrocytes (Homo sapiens, UniProt O15554); experiment: Gardos channel assay; format: cell-based; settings: for inhibition at 10 µM: 10 μM compound
T1 construct: endogenous in cells; host or cells: erythrocytes

[6] = test system: GM; experiment: SRB assay normal cells GM; format: cell-based; settings: GM (Normal human), 5% FCS/5 day incubation; read-out: Test Compound IC50
Source text: as §1

[7] = test system: HUVEC; experiment: SRB assay normal cells HUVEC; format: cell-based; settings: HUVEC (Normal human), 5% FCS/5 day incubation; read-out: Test Compound IC50
Source text: as §1

[8] = test system: HEPG2; experiment: SRB antiproliferative assay HEPG2; format: cell-based; settings: Homo sapiens
Source text: as §1

[9] = test system: HCT-15; experiment: SRB antiproliferative assay HCT-15; format: cell-based; settings: Homo sapiens; HCT-15 (Colon), 5% FCS/5 day incubation; read-out: Test Compound IC50
Source text: as §1

[10] = test system: MCF7; experiment: SRB antiproliferative assay MCF7; format: cell-based; settings: Homo sapiens
Source text: as §1

[11] = test system: HTB174; experiment: SRB antiproliferative assay HTB174; format: cell-based; settings: HTB174 (Lung), 5% FCS/5 day incubation; read-out: Test Compound IC50
Source text: as §1

[12] = test system: U118MG; experiment: SRB antiproliferative assay U118MG; format: cell-based; settings: Homo sapiens, U-118-MG
Source text: as §1

[13] = test system: SK-MEL-28; experiment: SRB antiproliferative assay SK-MEL-28; format: cell-based; settings: Homo sapiens; SK-MEL-28 (Melanoma), 5% FCS/5 day incubation; read-out: Test Compound IC50
Source text: as §1

[14] = test system: DU-145; experiment: SRB antiproliferative assay DU-145; format: cell-based; settings: Homo sapiens; DU-145 (Prostate), 5% FCS/5 day incubation; read-out: Test Compound IC50
Source text: as §1

[15] = test system: MDA-MB-23; experiment: SRB antiproliferative assay MDA-MB-23; format: cell-based
Source text: as §1

[16] = test system: CaSki; experiment: SRB antiproliferative assay CaSki; format: cell-based; settings: Homo sapiens, Ca-Ski; CaSki (Cervical), 5% FCS/5 day incubation; read-out: Test Compound IC50
Source text: as §1

[17] = test system: ACHN; experiment: SRB antiproliferative assay ACHN; format: cell-based; settings: Homo sapiens; ACHN (Renal), 5% FCS/5 day incubation; read-out: Test Compound IC50
Source text: as §1

[18] = test system: SK-OV-3; experiment: SRB antiproliferative assay SK-OV-3; format: cell-based; settings: Homo sapiens; SK-OV-3 (Ovary), 5% FCS/5 day incubation; read-out: Test Compound IC50
Source text: as §1

[19] = test system: 3T3; experiment: SRB assay normal cells 3T3; format: cell-based; settings: NIH3T3; 3T3 (Normal mouse), 5% FCS/5 day incubation; read-out: Test Compound IC50
Source text: as §1

[20] = test system: L929; experiment: SRB assay normal cells L929; format: cell-based; settings: L929 (Normal mouse), 5% FCS/5 day incubation; read-out: Test Compound IC50
Source text: as §1

[21] = test system: HeLa; experiment: SRB antiproliferative assay HeLa; format: cell-based; settings: Homo sapiens; HeLa (Cervical), 5% FCS/5 day incubation; read-out: Test Compound IC50
Source text: as §1

[22] = Mus musculus, NIH3T3, NIH 3T3 mouse fibroblast cells
[23] = HEPG2 (Hepatocel), 5% FCS/5 day incubation, read-out: Test Compound IC50
[24] = HEPG2, 5% FCS/3 days, read-out: Test Compound IC50 Value in Cell Lines
[25] = MCF7 (Breast), 5% FCS/5 day incubation, read-out: Test Compound IC50
[26] = MCF7, 5% FCS/3 days, read-out: Test Compound IC50 Value in Cell Lines
[27] = U118MG (CNS), 5% FCS/5 day incubation, read-out: Test Compound IC50
[28] = U118MG, 5% FCS/3 days, read-out: Test Compound IC50 Value in Cell Lines
[29] = MDA-MB-23 (Breast), 5% FCS/5 day incubation, read-out: Test Compound IC50
[30] = A549, A549 (Lung), 5% FCS/5 day incubation, read-out: Test Compound IC50
[31] = A549, A549, 5% FCS/3 days, read-out: Test Compound IC50 Value in Cell Lines
[32] = MMRU (Melanoma), 5% FCS/5 day incubation, read-out: Test Compound IC50
[33] = MMRU, 5% FCS/3 days, read-out: Test Compound IC50 Value in Cell Lines
[34] = HT-29, HT29 (Colon), 5% FCS/5 day incubation, read-out: Test Compound IC50
[35] = HT-29, HT29, 5% FCS/3 days, read-out: Test Compound IC50 Value in Cell Lines
[36] = MDA-MB-23, read-out: Test Compound IC50
[37] = A549 (Lung), 5% FCS/5 day incubation, read-out: Test Compound IC50

T1 sequence (O15554 whole entry): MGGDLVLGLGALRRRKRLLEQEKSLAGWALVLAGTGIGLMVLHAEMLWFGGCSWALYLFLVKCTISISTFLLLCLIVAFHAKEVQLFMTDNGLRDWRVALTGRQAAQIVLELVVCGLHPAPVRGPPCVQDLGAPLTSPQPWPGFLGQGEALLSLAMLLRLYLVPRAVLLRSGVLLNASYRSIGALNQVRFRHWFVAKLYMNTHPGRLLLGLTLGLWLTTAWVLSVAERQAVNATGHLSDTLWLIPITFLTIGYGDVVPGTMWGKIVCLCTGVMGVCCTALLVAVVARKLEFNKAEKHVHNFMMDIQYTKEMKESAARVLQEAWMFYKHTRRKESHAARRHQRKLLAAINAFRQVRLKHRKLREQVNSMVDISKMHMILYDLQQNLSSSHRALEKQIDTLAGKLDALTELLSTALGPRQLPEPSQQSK

SMILES	IC50 [5] [nM]	inhibition at 10 µM [5] [%]	IC50 [8, 23] [nM]	IC50 [8, 24] [nM]	IC50 [9] [nM]	IC50 [10, 25] [nM]	IC50 [10, 26] [nM]	IC50 [13] [nM]	IC50 [14] [nM]	IC50 [4, 34] [nM]	IC50 [17] [nM]	IC50 [21] [nM]	IC50 [1, 22] [nM]	IC50 [6] [nM]	IC50 [7] [nM]	IC50 [11] [nM]	IC50 [12, 27] [nM]	IC50 [16] [nM]	IC50 [3, 32] [nM]	IC50 [20] [nM]	also measured
O=C(Oc1ccccc1)N1Cc2ccccc2C(c2ccccc2)c2ccccc21 (centres unmarked) [Compound 14, N-phenoxycarbonyl-11-phenyl-5,6-dihydro-11H-dibenz[b,e]azepine]	> 10000	14.8											40								melting point: 155 to 165 °C; IC50 ([2]; A549, A549, 5% FCS/2 days, read-out: Test Compound IC50 Value in Cell Lines): > 10000 nM; IC50 ([3]; MMRU, 5% FCS/2 days, read-out: Test Compound IC50 Value in Cell Lines): > 10000 nM; IC50 ([4]; HT-29, HT29, 5% FCS/2 days, read-out: Test Compound IC50 Value in Cell Lines): 10000 nM
COc1cc([C@@H]2c3cc4c(cc3[C@@H](O[C@@H]3O[C@@H]5CO[C@@H](C)O[C@H]5[C@H](O)[C@H]3O)[C@H]3COC(=O)[C@H]23)OCO4)cc(OC)c1O [VP-16, Etoposide, reference compound]			< 1250		1300	< 1250		< 1250	< 1250	< 1250	< 1250	< 1250		1400	< 1250	< 1250	2200	1800	< 1250	< 1250	IC50 ([10]; MCF7, 2% FCS/3 days, read-out: Test Compound IC50 Value in Cell Lines): < 2500 nM; IC50 [15, 36]: < 1250 nM; IC50 [2, 37]: < 1250 nM; IC50 ([2]; A549, 2% FCS/3 days, read-out: Test Compound IC50 Value in Cell Lines): 2300 nM; IC50 ([3]; MMRU, 2% FCS/3 days, read-out: Test Compound IC50 Value in Cell Lines): < 2500 nM; IC50 ([4]; HT-29, HT29, 2% FCS/3 days, read-out: Test Compound IC50 Value in Cell Lines): 20000 nM
O=C(c1ccc([N+](=O)[O-])cc1)N1Cc2ccccc2C(c2ccccc2Cl)c2ccccc21 (centres unmarked) [Compound 28, N-(4′-nitrobenzoyl)-11-(2′-chlorophenyl)-5,6-dihydro-11H-dibenz[b,e]azepine]		0	300	< 1250	400	600	2100	400	900	300	700	300		900	700	100	500	500	200	600	IC50 [12, 28]: 1300 nM; IC50 [15, 36]: 500 nM; Mitogenic Assay Inhibition ([1]; 10 µM compound, NIH 3T3 mouse fibroblast cells): 99.0%; IC50 ([1]; NIH3T3, NIH 3T3 mouse fibroblast cells): 40 to 500 nM; IC50 [2, 37]: 800 nM; IC50 ([2]; A549, 5% FCS/3 days, read-out: Test Compound IC50 Value in Cell Lines): 1800 nM; IC50 [3, 33]: < 1250 nM; IC50 [4, 35]: < 1250 nM; IC50 [18]: > 1000 nM; IC50 [19]: > 1000 nM
O=C(c1ccc([N+](=O)[O-])cc1)N1Cc2ccccc2C(c2ccccc2)c2ccccc21 (centres unmarked) [Compound 20]	> 10000	13.6	900		900	> 1000		900	> 1000	700	> 1000	600	1700	> 1000	> 1000	700	900	900	500	900	IC50 [15, 29]: > 1000 nM; IC50 [2, 30]: > 1000 nM; IC50 [18]: > 1000 nM; IC50 [19]: > 1000 nM
COC(=O)N1Cc2ccccc2C(c2ccccc2Cl)c2ccccc21 (centres unmarked) [Compound 9, N-methoxycarbonyl-11-(2′-chlorophenyl)-5,6-dihydro-11H-dibenz[b,e]azepine]	85 to 93	97.3											2100								melting point: 159 to 161 °C
COc1ccc(C(=O)N2Cc3ccccc3C(c3ccccc3Cl)c3ccccc32)cc1 (centres unmarked) [Compound 27]	> 10000	3	400	< 1250	400	500	< 1250	700	> 1000	400	> 1000	200	2200	> 1000	> 1000	300	400	900	200	> 1000	IC50 [12, 28]: 1900 nM; IC50 [15, 29]: > 1000 nM; IC50 [2, 30]: 1100 nM; IC50 [2, 31]: < 1250 nM; IC50 [3, 33]: < 1250 nM; IC50 [4, 35]: < 1250 nM; IC50 [18]: > 1000 nM; IC50 [19]: > 1000 nM

Continued, in another order:

IC50 [5] [nM]	inhibition at 10 µM [5] [%]	IC50 [8, 23] [nM]	IC50 [8, 24] [nM]	IC50 [9] [nM]	IC50 [10, 25] [nM]	IC50 [10, 26] [nM]	IC50 [13] [nM]	IC50 [14] [nM]	IC50 [4, 34] [nM]	IC50 [17] [nM]	IC50 [21] [nM]	SMILES	IC50 [1, 22] [nM]	IC50 [6] [nM]	IC50 [7] [nM]	IC50 [11] [nM]	IC50 [12, 27] [nM]	IC50 [16] [nM]	IC50 [3, 32] [nM]	IC50 [20] [nM]	also measured
> 10000	14.6	900	< 1250	500	1300	1600	600	> 1000	600	> 1000	500	COc1ccc2c(c1)CN(C(=O)c1ccc([N+](=O)[O-])cc1)c1ccc(Cl)cc1C2c1ccccc1Cl (centres unmarked) [Compound 30]	600	> 1000	> 1000	500	800	700	500	> 1000	IC50 [12, 28]: < 1250 nM; IC50 [15, 29]: 900 nM; IC50 [2, 30]: 1500 nM; IC50 [2, 31]: 1700 nM; IC50 [3, 33]: < 1250 nM; IC50 [4, 35]: < 1250 nM; IC50 [18]: > 1000 nM; IC50 [19]: > 1000 nM
> 10000	0.8		5400			5900						O=C(Oc1ccccc1)N1Cc2ccccc2C(c2ccccc2Cl)c2ccccc21 (centres unmarked) [Compound 26, N-phenoxycarbonyl-11-(2′-chlorophenyl)-5,6-dihydro-11H-dibenz[b,e]azepine]	40 to 900								melting point: 95 to 99 °C; IC50 [12, 28]: 5700 nM; IC50 [2, 31]: 7000 nM; IC50 [3, 33]: 4900 nM; IC50 [4, 35]: 7200 nM
> 10000	12.3	400	< 1250	300	700	< 1250	300	900	200	800	200	COc1cccc2c1C(c1ccccc1Cl)c1cc(Cl)ccc1N(C(=O)c1ccc([N+](=O)[O-])cc1)C2 (centres unmarked) [Compound 31]	400	> 1000	800	200	400	500	200	900	IC50 [12, 28]: < 1250 nM; IC50 [15, 29]: 400 nM; IC50 [2, 30]: 600 nM; IC50 [2, 31]: < 1250 nM; IC50 [3, 33]: < 1250 nM; IC50 [4, 35]: < 1250 nM; IC50 [18]: 600 nM; IC50 [19]: > 1000 nM
